Assay results taken from patent US7605173B2, “Pharmaceutical liquid composition containing pyridone derivative” (KDL, Inc., priority 2002, dated 2009).

How the values were obtained:
[1] = Dissolving Pirfenidone in diethylene glycol monoethyl ether (attainable concentration); assay type: physicochemical; conditions: solvent diethylene glycol monoethyl ether
Procedure: That is, the diethylene glycol monoethyl ether was charged to a suitable container and warmed to 60° C. The Pirfenidone was added while stirring and a yellowish solution was obtained by continuing the stirring until the mixture was transparent. All the remaining ingredients as listed in Table 1 were dissolved in water at 60° C. and this solution was poured into the above Pirfenidone solution and the stirring was continued until mixed uniformly. The so obtained solution was protected from the light.
That is, the diethylene glycol monoethyl ether was charged to a suitable container and warmed to 60° C., and the Pirfenidone was added while stirring and a yellowish solution was obtained by continuing the stirring until the whole became transparent. Furthermore, the α-tocopherol was added and water was added while stirring until mixed uniformly. Then, the hydroxypropyl cellulose was added because of its necessity and stirred until a homogenous dispersion was formed. Furthermore, the dispersion was allowed to stand overnight until the particles of hydroxypropyl cellulose, the concentrating agent, were expanded, and finally the product was homogenized. The so obtained dispersion was allowed to stand overnight and a solution in the desired concentration was obtained. The solution was homogenized again and protected from light.

[2] = cited from earlier work

concentration of Pirfenidone that can be dissolved [1]: ~25 % by weight
SMILES: Cc1ccc(=O)n(-c2ccccc2)c1 [Pirfenidone, 5-methyl-1-phenyl-2-(1H)-pyridone]
solubility in water [2]: slightly soluble in water
